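A five-concentration, 48-hour dose response in 96-well plates underlies each endpoint, interpolated linearly between surrounding concentrations. The concentration for 50% growth inhibition is given as GI50. TGI: concentration producing complete growth inhibition.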
Assays:
Assay in all cases: inhibition of tumour cell growth, NCI panel, 48 h
U251 CNS = tested on: U251 CNS
MALME-3M melanoma = tested on: MALME-3M melanoma
SK-MEL-2 melanoma = tested on: SK-MEL-2 melanoma
M14 melanoma = tested on: M14 melanoma
SK-MEL-28 melanoma = tested on: SK-MEL-28 melanoma
HL-60(TB) leukemia = tested on: HL-60(TB) leukemia
NCI-H226 lung = tested on: NCI-H226 lung
NCI-H460 lung = tested on: NCI-H460 lung
RXF 393 renal = tested on: RXF 393 renal
RPMI-8226 leukemia = tested on: RPMI-8226 leukemia

Structure (SMILES) | TGI (U251 CNS) [µM] | TGI (MALME-3M melanoma) [µM] | TGI (SK-MEL-2 melanoma) [µM] | TGI (M14 melanoma) [µM] | TGI (SK-MEL-28 melanoma) [µM] | TGI (HL-60(TB) leukemia) [µM] | TGI (NCI-H226 lung) [µM] | TGI (NCI-H460 lung) [µM] | TGI (RXF 393 renal) [µM] | TGI (RPMI-8226 leukemia) [µM] | GI50 (RXF 393 renal) [µM] | GI50 (MALME-3M melanoma) [µM] | GI50 (M14 melanoma) [µM] | GI50 (SK-MEL-28 melanoma) [µM] | GI50 (HL-60(TB) leukemia) [µM] | GI50 (RPMI-8226 leukemia) [µM] | GI50 (NCI-H226 lung) [µM] | GI50 (SK-MEL-2 melanoma) [µM] | GI50 (U251 CNS) [µM] | GI50 (NCI-H460 lung) [µM]
CN(C)CCNC(=O)Cn1cc([N+](=O)[O-])c(=O)c2ccccc21 | > 100 | > 100 | > 100 | > 100 | > 100 | > 100 | > 100 | > 100 |  |  |  |  |  |  |  |  |  |  |  | 
Cc1cc(=O)[nH]o1 | > 100 |  | > 100 | > 100 | > 100 |  | > 100 | > 100 | > 100 | > 100 |  |  |  |  |  |  |  |  |  | 
CCCC[N+](CCCC)=c1ccc2nc3c(C)cc(N(CC)CC)cc3sc-2c1 |  | 0.429 |  | 1.64 | 2.03 | 0.773 | 1.72 |  | 1.41 | 1.58 | 0.322 | 0.165 | 0.338 | 0.613 | 0.0995 | 0.0571 | 0.265 |  |  | 
COc1ccc(N=Nc2c(-c3ccccc3)nn(C(=O)CC(=O)Nc3cccc(Cl)c3)c2-c2ccccc2)cc1 | > 100 | > 100 | > 100 |  | > 100 | > 100 | 68.1 | > 100 |  | > 100 |  |  |  |  |  |  |  |  |  | 
C1C[S][Ge]2([S]CCO1)[S]CCOCC[S]2 |  | > 100 | > 100 | > 100 | > 100 | > 100 | > 100 |  |  | > 100 |  | > 100 | > 100 | > 100 | > 100 | > 100 | > 100 | > 100 |  | 
O=C(c1ccccc1)c1ccc(OCCOc2ccc(Nc3ccccc3)cc2)cc1 | 57.1 | 71 | > 100 | > 100 | > 100 |  | > 100 | > 100 | 67.3 |  |  |  |  |  |  |  |  |  |  | 
COc1ccc(C2=NN(C(=O)c3cc(OC)c(OC)c(OC)c3)C(c3ccc(Cl)cc3)C2)cc1OC (stereo unspecified) | 42.2 | 98.9 | 63.6 | > 100 | > 55.9 |  | > 57.7 | > 100 |  | > 100 |  | 3.95 | 4.66 | 1.65 |  | 0.535 |  | 3.71 | 3.67 | 2.11
C=CC(C=O)C1(O)CCOC(=O)/C1=C\N (stereo unspecified) | > 100 | > 100 | > 100 | > 100 | > 100 |  | > 100 | > 100 |  | > 100 |  | > 100 | > 100 | > 100 |  | > 100 | > 100 | > 100 | > 100 | > 100
CCOc1cc2c(cc1O)/C(=N\O)C[C@@H]1[C@@H]2CC[C@]2(C)[C@@H](O)CC[C@@H]12 | > 100 |  | 55.6 | > 100 | > 53.5 | < 0.0258 | > 100 | 1.47 | > 100 | 0.0632 |  |  | 0.041 | 0.0143 |  |  | 0.258 |  | 0.0324 | 
c1ccc(-c2cc(C3CO3)c3ccccc3n2)cc1 (stereo unspecified) | 30 |  | 34.6 | 34.2 | > 100 | 63.7 | 43.1 | 39.1 | 28.3 | 58.1 |  |  |  |  |  |  |  |  |  | 
O=c1cccccc1NCCCCCCNc1cccccc1=O | > 100 | > 100 | > 100 | > 100 | > 100 | > 100 | > 100 | > 100 |  | > 100 |  |  |  |  |  |  |  |  |  | 
Cc1cccc(C(=O)/C=C/SC(=NC#N)SCc2ccccc2)c1 | 99.4 | 32 | > 100 | 59.1 | 67 |  |  | > 100 | 57.6 | > 100 | 22.7 | 12.3 | 24.8 | 25.8 |  | 4.06 |  | 48.5 | 22.5 | 36.5
CCSC1(SCC)CC(Cc2ccc(OC)cc2)N(C=NC(C)(C)C)C1 (stereo unspecified) | 62.7 | 37.5 | > 100 | 32.2 | 88.4 | 26.6 | > 100 | > 100 | 40.9 |  |  |  |  |  |  |  |  |  |  | 
CCN1C(NN)=NS(=O)(=O)c2ccccc21 | > 100 |  | > 100 | > 100 | > 100 | > 100 | > 100 | > 100 | > 100 |  |  |  |  |  |  |  |  |  |  | 
Cc1cc(C2=NNC(=O)Cc3cc4c(cc32)OCCO4)cc(C)c1N | > 100 |  | > 100 | > 100 | > 100 | 54.5 | > 100 | > 100 |  |  |  |  | 2.17 | 5.37 | 1.59 |  | 8.9 | 3.42 | 3.22 | 2.64
C=C(C)C1CC2(C)C(C)CC(OC(=O)/C(C)=C\C)CC2C(OC(=O)/C(C)=C\C)C1O (stereo unspecified) | > 100 | > 100 | > 100 | > 100 | > 100 | 43.6 | > 100 | > 100 |  |  |  |  |  |  |  |  |  |  |  | 

Structure (SMILES) | TGI (U251 CNS) [µM] | TGI (MALME-3M melanoma) [µM] | TGI (SK-MEL-2 melanoma) [µM] | TGI (M14 melanoma) [µM] | TGI (SK-MEL-28 melanoma) [µM] | TGI (HL-60(TB) leukemia) [µM] | TGI (NCI-H226 lung) [µM] | TGI (NCI-H460 lung) [µM] | TGI (RXF 393 renal) [µM] | TGI (RPMI-8226 leukemia) [µM] | GI50 (RXF 393 renal) [µM] | GI50 (MALME-3M melanoma) [µM] | GI50 (M14 melanoma) [µM] | GI50 (SK-MEL-28 melanoma) [µM] | GI50 (HL-60(TB) leukemia) [µM] | GI50 (RPMI-8226 leukemia) [µM] | GI50 (NCI-H226 lung) [µM] | GI50 (SK-MEL-2 melanoma) [µM] | GI50 (U251 CNS) [µM] | GI50 (NCI-H460 lung) [µM]
CCOC(=O)C1=C(C)NC2SC(=O)/C(=C\c3ccccc3O)N2C1c1ccccc1 (stereo unspecified) | 49.6 |  | 59.3 | 65.5 | 56.8 | 54.4 | 90.4 | 79.4 | 46.9 | 53.6 | 19 |  | 24 | 20.5 | 19.6 | 18.6 | 29 | 22.2 | 21.5 | 24.3
COC1CCC(O)C(/C=C/[N+](=O)[O-])C1 (stereo unspecified) | 8.04 |  | 23.1 | 10.7 | 54.9 | 5.29 | 5.96 | 7.73 | 2.91 | 4.2 |  |  |  |  |  |  |  |  |  | 
CC(=O)c1c(C)n(C)c2c1nnc1ccccc12 | > 100 | > 100 | > 100 | > 100 | > 100 |  | > 100 | > 100 | > 100 | > 100 |  |  |  |  |  |  |  |  |  | 
CN[C@@H](C)[C@@H](N)c1ccccc1 | > 100 | > 100 |  | > 100 | > 100 |  | > 100 | > 100 | > 100 | > 100 |  |  |  |  |  |  |  |  |  | 
OCC1OC(OCC(O)C(O)C(O)C(/C=N/Nc2ccccc2)=N/Nc2ccccc2)C(O)C(O)C1O (stereo unspecified) | > 100 | > 100 |  | > 100 | > 100 | > 100 |  | > 100 |  | > 100 |  |  |  |  |  |  |  |  |  | 
NNC(=S)N/N=C(/C(=O)Nc1cc(Cl)ccc1Cl)C1C(=O)Nc2ccccc2S1=O (stereo unspecified) | > 100 | > 100 | > 100 | > 100 | > 100 | > 100 | > 100 | > 100 | > 100 |  |  |  |  |  |  |  |  |  |  | 
COc1c(NC(C)=O)cc(C)cc1NC(C)=O | > 100 |  | > 100 | > 100 | > 100 | > 100 |  | > 100 | > 100 | > 100 |  |  |  |  |  |  |  |  |  | 
CCOC(=O)C1=C(O)CSC1=Nc1ccccc1 |  | > 100 | > 100 | > 100 | > 100 | > 100 | > 100 | > 100 |  | > 100 |  |  |  |  |  |  |  |  |  | 
O=C1C2=Nc3ccccc3C(O)N2c2ccccc21 (stereo unspecified) | > 100 | 29.8 |  | > 100 | > 68.7 | 34.2 | 77.3 | > 100 |  | > 100 |  |  |  |  |  |  |  |  |  | 
COC(=O)c1ccc(NC(=O)Nc2ccc3oc(=O)c4ccccc4c3c2)cc1 | > 100 | 73.7 |  | > 100 | > 100 | 14 | > 100 | > 100 |  | > 100 |  | 28.7 | 31.8 | 76 | 0.714 | 20.3 | 64.1 |  | 30.9 | 41.6
Oc1ccc(O)c(-c2cc(-c3ccccc3)nn2-c2ccccc2)c1 | 19.9 |  | > 100 | 25.4 | > 100 | > 100 | 51.4 | > 100 | > 100 |  | 31.3 |  | 12.4 | 40.8 | 24.9 |  | 18.7 | 34 | 5.7 | 24.8
Cn1nnnc1N/N=C/c1ccccc1 | > 10 |  | > 10 | > 10 | > 10 | > 10 | > 10 | > 10 | > 10 | > 10 |  |  |  |  |  |  |  |  |  | 
C=CC[P+](c1ccccc1)(c1ccccc1)c1ccccc1 | > 100 |  | 16.4 | > 100 | > 100 | 6.03 | > 100 | > 100 | > 100 | 32.2 | 27.6 |  | 8.09 | 11.3 | 1.58 | 0.675 | 5.88 | 3.36 | 3.44 | 4.54
O=C1N(c2ccccc2)C(=O)C2(SC=NN2Cc2ccccc2)N1c1ccccc1 (stereo unspecified) | > 100 | > 100 |  | > 100 | > 100 | > 100 | > 100 | > 100 | > 100 |  |  |  |  |  |  |  |  |  |  | 
CC1(C)CCc2cc3c(cc2O1)OCC1c2cc4c(cc2OC31)OCO4 (stereo unspecified) | > 100 | > 100 |  | > 100 |  | > 100 | > 100 | > 100 | > 100 | > 100 |  |  |  |  |  |  |  |  |  | 
